Some test systems named below: A549 NSCLC; BT-549 breast; CCRF-CEM leukemia; COLO 205 colon; HCT-116 colon; K-562 leukemia; MALME-3M melanoma; MDA-MB-231 breast; RXF 393 renal; UACC-62 melanoma.
Test in all cases: NCI anticancer screen, dose series, 48 h

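Cultured in 96-well plates, cells were exposed to test compound for 48 hours across five concentrations. GI50 = concentration required for 50% inhibition of growth. Definition used: TGI = concentration required for complete inhibition of growth.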

Consider `CC1=NN(c2nc(N)nc(/C=C\c3ccccc3)n2)C(C)(C)C1`, for which the GI50 with A549 NSCLC is 15.8 µM; with BT-549 breast, 5.09 µM; in the test with CCRF-CEM leukemia, 2.99 µM; in the test with COLO 205 colon it was 2.84 µM; with HCT-116 colon it was 2.76 µM; in the test with K-562 leukemia, 3.98 µM. Further, the GI50 is 10.7 µM with MALME-3M melanoma, 6.46 µM with MDA-MB-231 breast, 5.8 µM with RXF 393 renal and 3.88 µM with UACC-62 melanoma. Also, the TGI in the test on A549 NSCLC stood at 38.3 µM; in the test on BT-549 breast, 19.1 µM; with CCRF-CEM leukemia, 34.7 µM; in the test with COLO 205 colon it was 14 µM; in the test with HCT-116 colon, 14.2 µM; in the test on K-562 leukemia it was 22.1 µM. In addition, the TGI came out at 29.4 µM in the test on MALME-3M melanoma, 22.5 µM in the test on MDA-MB-231 breast, 20.1 µM in the test with RXF 393 renal and 16.4 µM in the test with UACC-62 melanoma.
Consider `CC(C)c1cc(C(C)C)c(Cl)c(Cl)c1O` (tested in a mixture with another compound), for which the TGI was above 100 µM with A549 NSCLC; 40.1 µM in the test with BT-549 breast; above 100 µM with CCRF-CEM leukemia; 39.8 µM in the test on COLO 205 colon; above 100 µM in the test on HCT-116 colon; 37.9 µM in the test on K-562 leukemia. Also, the TGI is 52.9 µM in the test with MALME-3M melanoma, 46 µM with MDA-MB-231 breast, 32.5 µM in the test with RXF 393 renal and 44 µM in the test on UACC-62 melanoma.
On to `CN1CC[C@]23c4c5ccc(O)c4OC2c2[nH]ncc2C[C@H]3[C@H]1C5` (stereo not given in full), for which the TGI with A549 NSCLC, in the test with BT-549 breast, in the test on CCRF-CEM leukemia, in the test on COLO 205 colon, with HCT-116 colon and in the test on K-562 leukemia was above 100 µM throughout. Besides, the TGI in the test on MALME-3M melanoma, with MDA-MB-231 breast, in the test with RXF 393 renal and with UACC-62 melanoma was above 100 µM in each case.
With `CCN(CC)C(=O)CCCCCn1c2ccccc2c2c3c(c4c5ccccc5[nH]c4c21)C(=O)N(O)C3=O`, the GI50 was 21.8 µM in the test with A549 NSCLC; 4.66 µM in the test on BT-549 breast; 3.07 µM in the test with CCRF-CEM leukemia; 1.97 µM in the test on COLO 205 colon; 3.75 µM in the test with HCT-116 colon; 4.18 µM with K-562 leukemia. For the same molecule, the GI50 was 8.2 µM with MALME-3M melanoma, 5.52 µM in the test on MDA-MB-231 breast, 4.01 µM in the test on RXF 393 renal and 4.1 µM in the test on UACC-62 melanoma. The TGI is 98.4 µM in the test on A549 NSCLC; 48.5 µM with BT-549 breast; 21.9 µM in the test with CCRF-CEM leukemia; 4.23 µM in the test on COLO 205 colon; 28.1 µM in the test on HCT-116 colon; above 100 µM with K-562 leukemia. Also, the TGI in the test with MALME-3M melanoma is 65.7 µM; in the test with MDA-MB-231 breast, 82.5 µM; in the test on RXF 393 renal, above 100 µM; with UACC-62 melanoma, 20.1 µM.
As for `CCN(CC)CCS(=O)(=O)CCNc1ccnc2cc(Cl)ccc12`, the GI50 with A549 NSCLC was 4.12 µM; with BT-549 breast, 2.94 µM; in the test with CCRF-CEM leukemia, 0.663 µM; in the test on COLO 205 colon, 2.66 µM; in the test with HCT-116 colon it was 0.834 µM; in the test with K-562 leukemia, 0.96 µM. Moreover, the GI50 is 2.15 µM in the test with MALME-3M melanoma, 3.1 µM in the test on MDA-MB-231 breast, 1.32 µM in the test on RXF 393 renal and 3.83 µM in the test with UACC-62 melanoma. Moreover, the TGI in the test on A549 NSCLC was above 61.7 µM; in the test with BT-549 breast, 9.62 µM; in the test on CCRF-CEM leukemia it was above 38.6 µM; with COLO 205 colon it was 8.31 µM; with HCT-116 colon it was 4.63 µM; in the test with K-562 leukemia it was above 49.8 µM. The TGI in the test with MALME-3M melanoma was 13.3 µM; in the test with MDA-MB-231 breast it was above 100 µM; in the test with RXF 393 renal, 5.8 µM; in the test on UACC-62 melanoma it was 29.6 µM.
Take `CCOC(=O)n1c2ccccc2c(=O)n1CCO`: the TGI in the test on A549 NSCLC, in the test with BT-549 breast, with CCRF-CEM leukemia, in the test with COLO 205 colon, with HCT-116 colon and with K-562 leukemia was above 100 µM each time. Further, the TGI in the test on MALME-3M melanoma, in the test with MDA-MB-231 breast, in the test on RXF 393 renal and in the test with UACC-62 melanoma was above 100 µM each time.
In the case of `CC1(C)N=C(N)N=C(N)N1c1ccc(OCCCCNC(=O)Nc2cccc(S(=O)(=O)F)c2)c(Cl)c1`, the GI50 in the test on A549 NSCLC was 2.27 µM; with BT-549 breast, 12.5 µM; in the test with CCRF-CEM leukemia, 0.95 µM; with COLO 205 colon, 3.78 µM; with HCT-116 colon, 0.594 µM; in the test on K-562 leukemia, 0.351 µM. In addition, the GI50 was 29.6 µM with MALME-3M melanoma, 6.57 µM in the test on MDA-MB-231 breast, 0.735 µM in the test on RXF 393 renal and 0.491 µM in the test on UACC-62 melanoma. For the same molecule, the TGI with A549 NSCLC, in the test with BT-549 breast, with CCRF-CEM leukemia, in the test with COLO 205 colon, in the test on HCT-116 colon and in the test with K-562 leukemia was above 100 µM throughout. The TGI in the test on MALME-3M melanoma, in the test on MDA-MB-231 breast, in the test on RXF 393 renal and with UACC-62 melanoma was above 100 µM throughout.
`Cc1cc(-c2ccco2)cc(C)c1/C=C/c1cncc(-c2nn[nH]n2)c1`: the GI50 in the test with A549 NSCLC, in the test on BT-549 breast, in the test on CCRF-CEM leukemia, in the test on COLO 205 colon, in the test on HCT-116 colon and with K-562 leukemia was above 25 µM throughout. Further, the GI50 in the test with MALME-3M melanoma, with MDA-MB-231 breast, in the test on RXF 393 renal and in the test with UACC-62 melanoma was above 25 µM in each case. The TGI with A549 NSCLC, in the test on BT-549 breast, with CCRF-CEM leukemia, in the test on COLO 205 colon, in the test with HCT-116 colon and in the test on K-562 leukemia was above 25 µM throughout. The TGI with MALME-3M melanoma, in the test on MDA-MB-231 breast, with RXF 393 renal and in the test with UACC-62 melanoma was above 25 µM throughout.
Take `Cc1cc2c(cc1C)[n+](=O)c(C(=O)/C=C/c1ccccc1[N+](=O)[O-])c(C)n2[O-]`: the TGI in the test with A549 NSCLC, in the test with BT-549 breast, in the test with CCRF-CEM leukemia, in the test with COLO 205 colon, with HCT-116 colon and with K-562 leukemia was above 100 µM throughout. The TGI is above 96.7 µM with MALME-3M melanoma, above 100 µM in the test on MDA-MB-231 breast, 46.2 µM in the test on RXF 393 renal and 75.3 µM with UACC-62 melanoma.
Consider `COC(=O)C1=Nc2ccc(F)cc2/C1=C/c1sc(=S)[nH]c1O`, for which the GI50 is 0.254 µM in the test with A549 NSCLC; 0.161 µM with BT-549 breast; 0.133 µM in the test on CCRF-CEM leukemia; 0.311 µM in the test on COLO 205 colon; 0.0468 µM in the test with HCT-116 colon; 0.045 µM with K-562 leukemia. In addition, the GI50 is 0.191 µM with MALME-3M melanoma, 0.358 µM in the test with MDA-MB-231 breast, 0.0762 µM in the test on RXF 393 renal and 0.248 µM in the test with UACC-62 melanoma. The TGI in the test on A549 NSCLC is above 100 µM; in the test on BT-549 breast, 3.31 µM; in the test on CCRF-CEM leukemia it was above 100 µM; in the test on COLO 205 colon, 1.24 µM; in the test with HCT-116 colon, 16.7 µM; in the test on K-562 leukemia it was above 100 µM. Also, the TGI in the test on MALME-3M melanoma was 29 µM; in the test on MDA-MB-231 breast, 4.26 µM; in the test with RXF 393 renal, 4.1 µM; with UACC-62 melanoma, above 47 µM.

The record behind these values is PubChem BioAssay (NCI).
